# Assay results reported in patent US20030104079A1, “Skin tissue regeneration promoters comprising ginsenoside Rb1” (Japan Science and Technology Corporation, Japan, priority 2000, published 2003).
# What was measured:
# open wound of skin [1] = assay: Open wound (skin defect) healing by intravenous infusion after punch biopsy; format: in vivo, Wistar rats; conditions: vs physiological saline
# Experimental: We have examined whether intravenous administration of ginsenoside Rb1 at low dosages or low doses can promote regeneration and/or reconstruction of skin tissue in diseases with defect of skin tissue (bedsore, skin ulcer, burn, frostbite, radiation injury, open wound, ultraviolet injury, electric injury, etc.). For that purpose, for example, by using male Wistar rats (body weight about 300 g), punch biopsy with diameter 6 mm was performed in the dorsal skin region of animals under inhalation anesthesia to prepare open wound, and the animals were allowed to leave as they were. About 1 hour later, ginsenoside Rb1 (12 μg) dissolved in physiological saline was once administered intravenously, then ginsenoside Rb1 was continuously infused intravenously for 7 days by using an Alza osmotic minipump (12 μg/day).
# An equal amount of physiological saline was administered intravenously in the control animals, for which the same open wound was made to leave the animals as they were.
# On day 2 after finishing continuous intravenous administration of ginsenoside Rb1 or physiological saline, the animals were anesthetized with pentobarbital and fixed transcardialy with perfusion of 0.1 M phosphate buffer containing 4% paraformaldehyde. Thereafter, the skin tissue including the open wound was dissected out, post-fixed and embedded in paraffin. […]
# open wound of skin [2] = assay: Open wound healing by intravenous preinfusion before punch biopsy; format: in vivo, Wistar rats
# Experimental: Then, we (the present inventors) have examined whether intravenous administration of ginsenoside Rb1 before preparation of open wound of skin can promote regeneration and/or reconstruction of the skin tissue. For that purpose, ginsenoside Rb1 (12 μg) dissolved in physiological saline was intravenously administered once into male Wistar rats (body weight about 300 g), under inhalation anesthesia, subsequently, continuous intravenous infusion of ginsenoside Rb1 (12 μg/day) was conducted for 4 days by using an Alza osmotic minipump. Thereafter, the punch biopsy with diameter 6 mm was performed in the dorsal skin region of animals under inhalation anesthesia to make open wound, and simultaneously, ginsenoside Rb1 was continuously infused intravenously for 3 days.
# An equal amount of physiological saline was administered intravenously in the control animals, for which the same open wound was prepared to leave the animals as they were.
# On day 2 after finishing continuous intravenous administration of ginsenoside Rb1 or physiological saline (i.e. on day 5 after preparation of the open wound), the animals were anesthetized with pentobarbital and fixed transcardially with perfusion of 0.1 M phosphate buffer containing 4% paraformaldehyde. Thereafter, the skin tissue including the open wound was dissected out, post-fixed and embedded in paraffin according to the conventional method. Paraffin sections 5 μm thick were cut and stained with hematoxylin-eosin (HE). FIG. 3 is a photograph in place of drawing. […] “i” indicates incrustation or eschar, “ep” indicates stratified squamous epithelium of epidermis, and “by” indicates blood vessel.
# Intravenous administration of physiological saline solution containing ginsenoside Rb1 (12 μg) was conducted once in male Wistar rats weighing about 300 g under inhalation anesthesia, subsequently, ginsenoside Rb1 was continuously infused intravenously for 4 days through an Alza osmotic minipump at a dose of 12 μg/day. […]
# Bcl-xL gene = conditions: continuous intravenous administration 60 μg/day; cited from earlier work
# [3] = system: skin epidermal keratinocytes or hornified cells; conditions: extracellular fluid concentration 100 μg/ml; cited from earlier work
# skin fibroblast = conditions: extracellular concentration 10 μg/ml; cited from earlier work
smiles,measurement,setting,value
CC(C)=CCC[C@](C)(O[C@@H]1O[C@H](CO[C@@H]2O[C@H](CO)[C@@H](O)[C@H](O)[C@H]2O)[C@@H](O)[C@H](O)[C@H]1O)[C@H]1CC[C@]2(C)[C@@H]1[C@H](O)C[C@@H]1[C@@]3(C)CC[C@H](O[C@@H]4O[C@H](CO)[C@@H](O)[C@H](O)[C@H]4O[C@@H]4O[C@H](CO)[C@@H](O)[C@H](O)[C@H]4O)C(C)(C)[C@@H]3CC[C@]12C [ginsenoside Rb1],"scar or granulation formation in open wound (HE histology, FIG. 2)",open wound of skin [1]; 12 μg once then 12 μg/day continuous iv for 7 days after 6 mm punch biopsy,scar or granulation formation was obviously little
same,epithelization of open wound (FIG. 2),open wound of skin [1]; 12 μg/day continuous iv for 7 days after 6 mm punch biopsy,sufficient epithelization occurred
same,"regeneration, generation and reconstruction of ruptured and excised blood vessels (FIG. 3)","open wound of skin [2]; 12 μg/day iv 4 days before and 3 days after open wound, day 5 after open wound",facilitated
same,regeneration and reconstruction of skin tissue (FIG. 3),"open wound of skin [2]; 12 μg/day iv 4 days before and 3 days after open wound, day 5 after open wound, vs physiological saline",regeneration and reconstruction of skin tissue were obviously promoted
same,"effect on healthy tissues, ginsenoside Rb1-administered vs physiological saline-administered case",open wound of skin [2]; continuous intravenous administration of low dosages,no clear difference was observed
same,expression of cell death-suppressing factor Bcl-xL gene in brain and nervous tissues,Bcl-xL gene,caused an increase in the expression
same,division and proliferation of skin epidermal keratinocytes or hornified cells,[3],can promote division and proliferation of skin epidermal keratinocytes or hornified cells
same,production of elastin,skin fibroblast,can promote production of elastin in the skin fibroblast
